Experimental data from US9216997B2, “Tri-heterocyclic derivatives, preparation process and uses thereof” (SHANGHAI DE NOVO PHARMATECH CO LTD., priority 2011, dated 2015).
Like-named read-outs stand apart in the source and are kept apart here.

What was measured:
MV4-11 cell = MV4-11 cell proliferation assay (CellTiter-Glo); type: cell-based, human; conditions: MV4-11 cells, 72 hours, read-out: IC50 inhibiting MV4-11 cell proliferation
Procedure: Test compounds were prepared in 100% DMSO and added to the cells to achieve final concentrations from 0.2 uM to […] (10 concentration points in 3 fold serial dilution). The culture plates were then incubated at 37 C in 5% CO2 for 72 hours.
After 72 hours, the cell morphology was observed under an inverted microscope. Cell viability was then quantified at room temp using a CellTiter-Glo assay (Promega G7571) following the manufacture's instruction. Briefly, a volume of 100 ul Celltiter-Glo reagenet was added to each well to induce cell lysis. After 10 min incubation at RT, a luminescent signal was produced by measuring the amount of ATP. The signal was directly proportional to the number of viable cells present in culture.

[1] = system: MV4-11 acute myeloid leukemia zenograft tumor model; experiment: MV4-11 acute myeloid leukemia xenograft tumor model; type: in vivo, NOD/SCID female mice; conditions: 3 mg/kg, po, qd, 22 days; tumor-bearing NOD/SCID mice
Procedure: Compound C (18 mg) in 22% 2-hydroxypropyl-β=cyclodextrin (60 ml), ultrasonic 15 min to dissolve, an average of 2.14 ml divided into each of the small bottle, reserved 22 bottles for experiment.
6-8 weeks NOD/SCID female mice (18-25 g) were used. Each mouse was inoculated subcutaneously at the right flank with MV4-11 tumor cells (1×10^7) in 0.1 ml of PBS/Matrigel (1:1) for tumor development. The treatments were started when the mean tumor size reached 188 mm^3. The animals were separated even as test and control group randomly, and each group is consisted of 6 tumor-bearing mice. The test articles were orally administered (2.14 ml) to the tumor-bearing mice once a day. The date of tumor cell inoculation is denoted as day 0. The tumor volume was measured every four days, and the animals were scarified at 22 days. Statistical analyses of difference in tumor volume among the groups were evaluated using a one-way ANOVA followed by individual comparisons using Games-Howell (equal variance not assumed).
All data were analyzed using SPSS 17.0. p<0.05 was considered to be statistically significant. The antitumor activities of compounds of disclose are calculated by the formula: T C %=TRTV/CRTV×100%. (TRTV: drug treated group RTV; CRTV: vehicle treated group RTV). Evaluation standard: T/C (%)>40% considered as not effective; T/C (%) 40% considered as effective with P<0.05.

FLT3 = FLT3 (Homo sapiens (Human), UniProt P36888); experiment: FLT3 kinase inhibition assay (Caliper mobility shift assay); type: biochemical; conditions: 0.9 nM purified FLT3, 97 uM ATP, 28° C., 60 min; read-out: IC50 inhibiting the FLT3 kinase
Procedure: The average of inhibitory rate of Flt3 kinase and IC50 was determined by a Caliper's mobility shift assay (MSA).
FLT3 is a receptor tyrosine kinase involved in survival and proliferation of leukemic cells. Constitutively activating FLT3 mutations has been found in about 30% of all patients with acute myeloid leukemia (AML). The tested compounds were screened for their ability to inhibit FLT3 kinase activity using Caliper's mobility shift assay (MSA). The assay uses a microfluidic chip to measure the conversion of a fluorescent peptide substrate to a phosphorylated product following separation by electrophoresis.
Data were collected on Caliper and converted into inhibition values. IC50 values were obtained using XLfit graphic program.

FLT3, sequence (P36888 27-993): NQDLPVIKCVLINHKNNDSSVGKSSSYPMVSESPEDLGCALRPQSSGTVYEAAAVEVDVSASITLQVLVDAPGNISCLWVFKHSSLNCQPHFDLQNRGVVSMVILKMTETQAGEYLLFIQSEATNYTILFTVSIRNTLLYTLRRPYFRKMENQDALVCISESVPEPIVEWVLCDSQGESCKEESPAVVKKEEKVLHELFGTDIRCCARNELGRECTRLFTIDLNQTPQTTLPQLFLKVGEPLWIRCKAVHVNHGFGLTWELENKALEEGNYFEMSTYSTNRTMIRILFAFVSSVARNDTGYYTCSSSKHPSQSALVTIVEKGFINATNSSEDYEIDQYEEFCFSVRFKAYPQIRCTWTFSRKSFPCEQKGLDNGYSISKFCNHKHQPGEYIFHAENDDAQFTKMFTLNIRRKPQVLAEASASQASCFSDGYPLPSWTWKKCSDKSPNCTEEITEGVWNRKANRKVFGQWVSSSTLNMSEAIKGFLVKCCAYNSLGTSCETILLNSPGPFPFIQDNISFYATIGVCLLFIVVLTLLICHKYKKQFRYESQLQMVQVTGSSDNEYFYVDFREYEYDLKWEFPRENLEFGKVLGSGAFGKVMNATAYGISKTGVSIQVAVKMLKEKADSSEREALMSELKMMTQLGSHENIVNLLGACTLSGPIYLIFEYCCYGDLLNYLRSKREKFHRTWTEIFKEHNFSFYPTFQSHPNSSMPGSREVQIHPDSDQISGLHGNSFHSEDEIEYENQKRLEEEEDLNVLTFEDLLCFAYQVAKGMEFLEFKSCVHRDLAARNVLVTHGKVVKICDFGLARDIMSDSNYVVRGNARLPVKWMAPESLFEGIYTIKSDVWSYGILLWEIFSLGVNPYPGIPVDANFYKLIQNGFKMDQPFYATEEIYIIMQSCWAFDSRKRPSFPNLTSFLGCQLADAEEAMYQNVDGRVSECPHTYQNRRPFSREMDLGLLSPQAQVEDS

For `CN(C)CCNc1ncc2c(n1)sc1nc(-c3ccc(NC(=O)Nc4cc(C(C)(C)C)on4)cc3)cn12` [Compound 97-1], the IC50 (MV4-11 cell; Homo sapiens) was 0.03 nM.

In the case of `CCN(CC)CCNc1ncc2c(n1)sc1nc(-c3ccc(NC(=O)Nc4cc(C(C)(C)C)on4)cc3)cn12` [Compound 97-2], the IC50 (MV4-11 cell; Homo sapiens) is reported as 0.42 nM.

In the case of `CC(C)(C)c1cc(NC(=O)Nc2ccc(-c3cn4c(n3)sc3nc(NCCN5C[C@@H]6C[C@H]5CO6)ncc34)cc2)no1` [Compound 97-3], the IC50 (MV4-11 cell; Homo sapiens) is reported as 0.07 nM.

`CC(C)(C)c1cc(NC(=O)Nc2ccc(-c3cn4c(n3)sc3cc(OCCN5CCOCC5)ccc34)cc2)no1` [Quizartinib, reference compound] showed an IC50 (MV4-11 cell; Homo sapiens) of 0.56 nM and a T/C [1] of 9%.

With `CC(C)(C)c1cc(NC(=O)Nc2ccc(-c3cn4c(n3)sc3nc(N5CCOCC5)ncc34)cc2)no1` [compound 8-1] the IC50 (FLT3) was 19 nM.

`CC(C)(C)c1cc(NC(=O)Nc2ccc(-c3cn4c(n3)sc3nc(N5CCNCC5)ncc34)cc2)no1` [compound 8-4] gave an IC50 (MV4-11 cell; Homo sapiens) of 1.1 nM.

For `CC(C)(C)c1cc(NC(=O)Nc2ccc(-c3cn4c(n3)sc3nc(N5CCC(N6CCOCC6)CC5)ncc34)cc2)no1` [compound 8-6], the IC50 (MV4-11 cell; Homo sapiens) was 1.26 nM.

`CC(C)(C)c1cc(NC(=O)Nc2ccc(-c3cn4c(n3)sc3nc(OCCN5CCOCC5)ccc34)cc2)no1` [compound 28-1] gave an IC50 (MV4-11 cell; Homo sapiens) of 0.7 nM.

In the case of `CN(C)CCOc1ccc2c(n1)sc1nc(-c3ccc(NC(=O)Nc4cc(C(C)(C)C)on4)cc3)cn12` [compound 28-2], the IC50 (MV4-11 cell; Homo sapiens) is reported as 0.2 nM and the IC50 (FLT3) is reported as 18 nM.

`CC(C)(C)c1cc(NC(=O)Nc2ccc(-c3cn4c(n3)sc3nc(OCCN5CCNCC5)ccc34)cc2)no1` [compound 28-3] showed an IC50 (MV4-11 cell; Homo sapiens) of 0.4 nM and an IC50 (FLT3) of 34 nM.

Work on `CC(C)(C)c1cc(NC(=O)Nc2ccc(-c3cn4c(n3)sc3nc(OCCCN5CCOCC5)ccc34)cc2)no1` [compound 28-6] yielded an IC50 (MV4-11 cell; Homo sapiens) of 0.4 nM and an IC50 (FLT3) of 47 nM.

Work on `CC(C)(C)c1cc(NC(=O)Nc2ccc(-c3cn4c(n3)sc3nc(OCCN5C[C@@H]6C[C@H]5CN6)ccc34)cc2)no1` [compound 28-7] yielded an IC50 (MV4-11 cell; Homo sapiens) of 0.3 nM and an IC50 (FLT3) of 1.2 nM.

`CN1C[C@@H]2C[C@H]1CN2CCOc1ccc2c(n1)sc1nc(-c3ccc(NC(=O)Nc4cc(C(C)(C)C)on4)cc3)cn12` [compound 28-8] showed an IC50 (MV4-11 cell; Homo sapiens) of 0.2 nM and an IC50 (FLT3) of 10.9 nM.

Molecule `CC(C)(C)c1cc(NC(=O)Nc2ccc(-c3cn4c(n3)sc3nc(OCC5CCNCC5)ccc34)cc2)no1` [compound 28-9] has an IC50 (MV4-11 cell; Homo sapiens) of 0.3 nM and an IC50 (FLT3) of 11 nM.

Molecule `CN1CCC(COc2ccc3c(n2)sc2nc(-c4ccc(NC(=O)Nc5cc(C(C)(C)C)on5)cc4)cn23)CC1` [compound 28-10] has an IC50 (MV4-11 cell; Homo sapiens) of 0.3 nM and an IC50 (FLT3) of 13 nM.

`CC(C)(C)c1cc(NC(=O)Nc2ccc(-c3cn4c(n3)sc3nc(OCC5CNC5)ccc34)cc2)no1` [compound 28-11] was tested, and the IC50 (MV4-11 cell; Homo sapiens) was 0.84 nM.

In the case of `CC(C)(C)c1cc(NC(=O)Nc2ccc(-c3cn4c(n3)sc3nc(OCC5CNCCO5)ccc34)cc2)no1` (centres unmarked) [compound 28-12], the IC50 (MV4-11 cell; Homo sapiens) is reported as 0.47 nM.

In the case of `CN1CCOC(COc2ccc3c(n2)sc2nc(-c4ccc(NC(=O)Nc5cc(C(C)(C)C)on5)cc4)cn23)C1` (centres unmarked) [compound 28-13], the IC50 (MV4-11 cell; Homo sapiens) is reported as 0.3 nM.

With `CCN(CC)CCOc1ccc2c(n1)sc1nc(-c3ccc(NC(=O)Nc4cc(C(C)(C)C)on4)cc3)cn12` [compound 28-14] the IC50 (MV4-11 cell; Homo sapiens) was 0.03 nM and the IC50 (FLT3) was 9.6 nM.

Molecule `CC(C)(C)c1cc(NC(=O)Nc2ccc(-c3cn4c(n3)sc3nc(OCCN5C[C@@H]6C[C@H]5CO6)ccc34)cc2)no1` [compound 28-15] has an IC50 (MV4-11 cell; Homo sapiens) of 0.05 nM and an IC50 (FLT3) of 68 nM.

`CC(C)(C)c1cc(NC(=O)Nc2ccc(-c3cn4c(n3)sc3nc(OCC5(N)CC5)ccc34)cc2)no1` [compound 35-1] showed an IC50 (MV4-11 cell; Homo sapiens) of 1.4 nM and an IC50 (FLT3) of 38 nM.

In the case of `CC(=O)NC1(COc2ccc3c(n2)sc2nc(-c4ccc(NC(=O)Nc5cc(C(C)(C)C)on5)cc4)cn23)CC1` [compound 35-2], the IC50 (MV4-11 cell; Homo sapiens) is reported as 0.52 nM.

Molecule `CC(C)(C)c1cc(NC(=O)Nc2ccc(-c3cn4c(n3)sc3nc(OCC5(NS(C)(=O)=O)CC5)ccc34)cc2)no1` [compound 35-3] has an IC50 (MV4-11 cell; Homo sapiens) of 12.9 nM.

`CC(C)(C)c1cc(NC(=O)Nc2ccc(-c3cn4c(n3)sc3nc(OC[C@@H]5CCCN5)ccc34)cc2)no1` [compound 35-4] was tested, and the IC50 (MV4-11 cell; Homo sapiens) was 0.9 nM.

`CNC1(COc2ccc3c(n2)sc2nc(-c4ccc(NC(=O)Nc5cc(C(C)(C)C)on5)cc4)cn23)CC1` [compound 39-1] gave an IC50 (MV4-11 cell) of 0.5 nM and an IC50 (FLT3) of 52 nM.

For `CC(C)(C)c1cc(NC(=O)Nc2ccc(-c3cn4c(n3)sc3nc(N5CCOCC5)ccc34)cc2)no1` [compound 46], the IC50 (MV4-11 cell; Homo sapiens) was 0.8 nM.

For `CC(C)(C)c1cc(NC(=O)Nc2ccc(-c3cn4c(n3)sc3nc(NCCN5CCOCC5)ccc34)cc2)no1` [compound 53-1], the IC50 (MV4-11 cell; Homo sapiens) was 0.2 nM and the IC50 (FLT3) was 29 nM.

With `CN(CCN1CCOCC1)c1ccc2c(n1)sc1nc(-c3ccc(NC(=O)Nc4cc(C(C)(C)C)on4)cc3)cn12` [compound 53-2] the IC50 (MV4-11 cell; Homo sapiens) was 0.5 nM and the IC50 (FLT3) was 43 nM.

For `CC(C)(C)c1cc(NC(=O)Nc2ccc(-c3cn4c(n3)sc3nc(NCC5(N)CC5)ccc34)cc2)no1` [compound 63-1], the IC50 (MV4-11 cell; Homo sapiens) was 0.96 nM.

`CNC1(CNc2ccc3c(n2)sc2nc(-c4ccc(NC(=O)Nc5cc(C(C)(C)C)on5)cc4)cn23)CC1` [compound 63-2] was tested, and the IC50 (MV4-11 cell; Homo sapiens) was 0.58 nM.

Molecule `CNC1(COc2ccc3c(c2)sc2cc(-c4ccc(NC(=O)Nc5cc(C(C)(C)C)on5)cc4)cn23)CC1` [compound 80] has an IC50 (MV4-11 cell; Homo sapiens) of 4.7 nM.

With `CN(C)CCNc1ccc2c(n1)sc1nc(-c3ccc(NC(=O)Nc4cc(C(C)(C)C)on4)cc3)cn12` [compound 89-1] the IC50 (MV4-11 cell) was 0.03 nM and the IC50 (FLT3) was 10 nM.

`CCN(CC)CCNc1ccc2c(n1)sc1nc(-c3ccc(NC(=O)Nc4cc(C(C)(C)C)on4)cc3)cn12` [compound 89-3] was tested, and the IC50 (MV4-11 cell) was 0.04 nM and the IC50 (FLT3) was 19 nM.

`CC(C)(C)c1cc(NC(=O)Nc2ccc(-c3cn4c(n3)sc3nc(NCCN5C[C@@H]6C[C@H]5CO6)ccc34)cc2)no1` [compound 89-4] was tested, and the IC50 (MV4-11 cell) was 0.08 nM and the IC50 (FLT3) was 28 nM.

`CC(C)(C)c1cc(NC(=O)Nc2ccc(-c3cn4c(n3)sc3nc(N5CCC(N6CCOCC6)CC5)ccc34)cc2)no1` [compound 89-5] was tested, and the IC50 (MV4-11 cell) was 0.29 nM and the IC50 (FLT3) was 34 nM.
